Assay results as given in ChEMBL document CHEMBL3507680, “University of Dundee, Gates Library screen for HepG2 cell viability”.

Assay: Human HepG2 cell viability assay in 384 well format
Type: toxicity, cell-based
Design: dose 125 nL, time 70.5 hour; concentration not given beside the values
Conditions: HepG2 cells, read-out: Inhibition

| SMILES | cytotoxicity at 70.5 h [%] |
| --- | --- |
| CCCS(=O)(=O)N1C[C@@H](OCc2ccncc2)[C@H]2OCCC[C@H]21 | -7.43 |
| CNC(=O)c1cn2cc(-c3ccccc3Cl)n(CC3CC3)c(=O)c2n1 | 15.9 |
| CNCC(=O)N1CCCCC1c1nccc(C)n1 (configuration not stated) | 16.2 |
| Cn1nccc1-c1nnn2c1COCC(CNCC1CC1)C2 (configuration not stated) | -2.84 |
| COc1ccccc1-n1cc(C(=O)NCCn2nc(C)nc2C)cn1 | -9.92 |
| CN(C)S(=O)(=O)N(C)C(c1cccc(F)c1)c1ccccn1 (configuration not stated) | -19.9 |
| Cc1c[nH]nc1C1CCCN1Cc1ncc[nH]1 (configuration not stated) | -2.22 |
| N#CC1(c2ccccc2)CCN(C(=O)C2CCCN(CC(N)=O)C2)CC1 (configuration not stated) | 1.9 |
| COc1ccc(OCc2nc(C(=O)N3CC(O)C3)co2)cc1 | -8.01 |
| Cc1nccc(N2CCCC(C)(C(=O)NC3CCCC3)C2)n1 (configuration not stated) | -15.1 |
| O=C(c1cc(F)cc2[nH]cnc12)N1CCCC1Cn1cccn1 (configuration not stated) | -8.91 |
| Cc1nc(CN2CCc3nn(C)c(=O)cc3C2)oc1C | -9.42 |
| CC(=O)Nc1nc(-c2ccc(C)c(C)c2)c[nH]1 | 0.35 |
| O=C(CS(=O)(=O)Cc1cc(Cl)c2c(c1)OCO2)N1CCCCCC1 | -2.51 |
| CCN(CC(=O)NC(C)(C)C)Cc1cccc2c1OCCO2 | -11.6 |
| CN(Cc1ccc(F)cc1)CC1(O)CCN(C(=O)c2ccsc2)C1 (configuration not stated) | 9.08 |
| COc1ccc2c(c1)OCC(Cc1ccc(C)nc1N)C2 (configuration not stated) | 13.9 |
| CCOCC(=O)N1C[C@H]2CCC[C@@]2(COC)C1 | -7.78 |
| O=C(CCC1CCCC1)N1CCC(O)(C(F)(F)F)C1 (configuration not stated) | -0.869 |

| SMILES | cytotoxicity at 70.5 h [%] |
| --- | --- |
| CN1C(=O)C2(CC(=O)Nc3[nH]ncc32)c2cc(F)ccc21 (configuration not stated) | -19.4 |
| O=S(=O)(Cc1ccc(F)c(Cl)c1)NC(CO)c1ccco1 (configuration not stated) | -11 |
| O=C(NCc1nn(-c2ccccc2)c2c1CCC2)N1CCCC(O)C1 (configuration not stated) | -12.1 |
| Cc1cc(C)n(CC2CCCN2CC(=O)NC2CCOCC2)n1 (configuration not stated) | -15.9 |
| CC(C)c1cc(C(=O)NC2CCN(CC(N)=O)CC2)nn1C(C)(C)C | -10.3 |
| CCS(=O)(=O)CC(C)N(C)C(=O)COc1ccccc1C#N (configuration not stated) | -15.4 |
| COc1cc(NC2CCCN(c3ncccc3C#N)C2)cc(OC)c1 (configuration not stated) | 23 |
| Cc1csc(CN(C)C(=O)Nc2cnn(CC3CCCO3)c2)n1 (configuration not stated) | -12.7 |
| O=C(O)CC(NC(=O)c1cc(Br)c[nH]1)c1ccccc1 (configuration not stated) | -7.36 |
| CCN(Cc1noc(C)n1)C(=O)CC1C(=O)NCCN1CC(C)(C)C (configuration not stated) | 9.61 |
| CC(C)c1nc(C2CCCN2C(=O)c2cc(Cl)c[nH]2)no1 (configuration not stated) | -2.12 |
| Cc1ccsc1C(=O)N(C)Cc1ccncc1 | -7.89 |
| Cc1noc(C(C)N2CCN(CCC(=O)N3CCCCC3)CC2)n1 (configuration not stated) | -8.82 |
| CC(=O)N1CCC(C)(c2cc(C(=O)NCC(C)(C)C)nc(C)n2)CC1 | 9.62 |
| N[C@@H](Cc1ccccc1)c1nnc(S(=O)(=O)Cc2ccc(Cl)cc2)o1 | 12.7 |
| CCC1(CNCc2ncc[nH]2)CCCC1 | -13.3 |
| N#Cc1cnc2ccccc2c1N1CCC(C(=O)O)CC1 | -4.5 |
| OC1(CN2CCCC2)CCCN(Cc2cnc(-c3ccccc3)nc2)C1 (configuration not stated) | 31.4 |
| Cc1ncc2c(n1)CN(CC(=O)Nc1nccs1)CC2 | -10.4 |

| SMILES | cytotoxicity at 70.5 h [%] |
| --- | --- |
| COCCCN1CC2(CCC1=O)CCN(Cc1cc(C)no1)CC2 | 12.2 |
| Cc1cnn(CC(C)NCc2nc(-c3ccccn3)no2)c1 (configuration not stated) | -7.46 |
| O=c1n(CCNc2cccc3ccccc23)nc2ccccn12 | 4.9 |
| COc1c(CNCCc2c[nH]c3ccccc23)c(C)nn1C | 22.7 |
| COCCN1CCC2(CCN(CC3CC3)CC2)C1=O | -2.3 |
| Cc1nc(C)n(CC2CCCN(CC(=O)Nc3nncs3)C2)n1 (configuration not stated) | -6.97 |
| COCC(NC(=O)c1cc[nH]n1)c1cccc(C(F)(F)F)c1 (configuration not stated) | -0.606 |
| c1cc(-c2noc(-c3cc(C4CC4)on3)n2)cc(N2CCCCC2)n1 | -7.87 |
| CCc1cnc(CN(C)C2CCN(CC(=O)Nc3nccs3)C2)o1 (configuration not stated) | 23 |
| CCN(C(=O)CN(Cc1cccc(O)c1)C1CCC(O)CC1)C1CC1 (configuration not stated) | -2.83 |
| CN(CC(F)(F)F)C(=O)CNC(=O)Cc1ccccc1O | 5.05 |
| COC[C@H]1CC[C@@H]2[C@@H](CCN2Cc2ccccn2)O1 | 22.1 |
| CC(C)NC(=O)CN(C)CC(=O)/N=c1/cc[nH]n1C(C)C1CC1 (configuration not stated) | 34.2 |
| COc1cc(C(=O)N(Cc2ccco2)C2CC2)cc2c1OCCO2 | -0.578 |
| CCNc1cc2c(nn1)CCN(C(=O)CCc1c(C)noc1Cl)C2 | -4.23 |
| Cc1cc(C)n(CC2CN(c3ccc(C#N)cn3)CCO2)n1 (configuration not stated) | -3.22 |
| CN1CC[C@H](N(Cc2ccccc2)C2COC2)C[C@H](O)C1 | -6.77 |
| c1cc(CN2C[C@@H]3COC[C@]3(COCC3CC3)C2)ccn1 | 11.6 |
| O=C(C[S+]([O-])Cc1ccc(F)cc1Cl)NC1CCCC1 (configuration not stated) | -6.82 |
